System: PAD
Test: PAD activity in serum of mice with DSS-induced colitis (BAEE substrate, COLDER citrulline detection)
Format: in vivo
Details: serum of mice given 2% DSS for 1 week; Cl-amidine treated vs no treatment; p>0.005 as printed; FIG. 2A
Protocol: A mouse model of colitis was used to develop a method for detecting disease incidence and disease severity by measuring the PAD activity present in serum. In this model, mice were […] or orally administered 2% dextran sulfate sodium (DSS) for 1 week to induce colitis. This model induced moderate to severe colon inflammation, shortening of the colon, and ulcer formation. The efficacy was tested of the PAD inhibitor, Cl-amidine, to determine if PAD activity was diminished in a group of Cl-amidine treated mice versus a group receiving no treatment with the PAD inhibitor. As a control, mice were given water without 2% DSS.
To determine PAD activity levels within the mice, serum samples were collected, then resuspended in Homogenization Buffer (50 mM HEPES pH 7.6, 10% glycerol, 1% NP-40, 1 mM PMSF, and 2 mM DTT) and homogenized using a glass dounce homogenizer. Serum samples were then centrifuged at 10,600 g for 20 min to remove cellular debris. The protein concentration was measured using the Lowry assay. PAD activity was determined by incubating serum samples in a Reaction Buffer (100 mM 4-(2-hydroxyethyl)-1-piperazineethanesulfonic acid (“HEPES”) pH 7.6, 500 mM NaCl, […] (“DTT”), 100 mM CaCl2, and 100 mM N-benzoyl-L-arginine ethyl ester (“BAEE”)) as substrate for the PAD. Incubation was carried out for 2 h at 37° C. in duplicate before freezing in liquid nitrogen. […]

For NC(=O)[C@H](CCCN=C(N)CCl)NC(=O)c1ccccc1 [Cl-amidine], the “decrease in PAD activity as compared to the no treatment mice” value was “greater than 2.3 fold”.

From US20120295292A1, “Detecting Protein Arginine Deiminase (PAD) Activity in Human Tissues and Sera” (University of South Carolina, priority 2011, published 2012)
